In patent US20170246311A1, “PEPTIDES FOR BINDING ALTERNATIVELY ACTIVATED MACROPHAGES” (University of Washington, priority 2016, published 2017):
Entries after “also recorded” stand apart in the source; their conditions may differ. Positions of bridges follow the written chain, without caps; N, C: chain ends. Non-standard residues stand in square brackets, D forms with d. Residues, ends and D or L forms follow the SMILES beside them. *: point of attachment. Biotin = O=C1N[C@H]2[C@H](CS[C@H]2CCCCC(=O)*)N1; Hyp = O=C(O)[C@@H]1C[C@@H](O)CN1

Test system: M2 macrophages
Test: Binding study of biotinylated peptides on polarized bone marrow-derived macrophages (streptavidin-FITC, flow cytometry)
Type: cell-based, mouse
Settings: biotinylated peptide, on ice 20 min
Experimental: All animal handling protocols were approved by the University of Washington Institutional Animal Care and Use Committee. Bone marrow harvest was performed following the previously reported protocol. Briefly, femur and tibia were excised from 6-8 week-old female c57bl6/027 mice. Cuts were made on the ends of each bone, and RPMI 1640 medium was used to flush out bone marrow cells via 18G needle. The cells were cultured on petri dishes in RPMI 1640 medium supplemented with 20% donor horse serum, 1% antibiotic-antimycotic (AbAm), and 20 ng/mL M-CSF. After 7 d of culture, macrophages were activated by replacing M-CSF with 25 ng/mL IFN-γ and 100 ng/mL LPS for M1 macrophage or 25 ng/mL IL-4 for M2 macrophage. The macrophages were activated for 2 d and then scraped off the petri dishes with cell lifter for binding studies.
Peptide solutions at different concentrations for binding study were prepared by dilutions from the stock solution (10 mg/mL in dH2O) with PBS containing 1% BSA (PBSA). M1 and M2 macrophages (50,000 cells/well) were seeded on a black 96-well plate and incubated in the peptide solutions on ice for 20 min. Unbound peptides were washed off with PBSA twice. The macrophages were subsequently incubated with streptavidin-FITC for 15 min on ice to probe for the bound peptides. Excess streptavidin-FITC was washed off with PBSA twice, and the macrophages were then resuspended in PBS for analysis by MACSQuant Flow Cytometer (Miltenyi Biotec, San Diego, Calif.). Propidium iodide was added to the samples before the data acquisition to discriminate dead cells. Flow cytometry data were analyzed with FlowJo Analysis Software (Tree Star, Ashland, Oreg.). Binding study of peptides post serum incubation was similarly performed with the following additions: The peptides (5 mM stock solution in H2O) were diluted in serum to a final concentration of 0.5 mM and incubated at 37° C. in an incubator. At each time point, an aliquot of the peptides was drawn and diluted in PBS to the final concentration for the binding study. The diluted aliquot was heated at 80° C. for 30 min to inactivate serum proteins, stored in a −20° C. freezer, and thawed for use in the binding study after aliquots at all time points were collected.
All animal handling protocols were approved by the University of Washington Institutional Animal Care and Use Committee. Bone marrow-derived cells were harvested from female c57bl/6 mice as previously described. In brief, femurs and tibias of the mice were excised and flushed with RPMI 1640 medium via an 18G needle. The cells were cultured on petri dishes containing RPMI 1640 medium supplemented with 20% donor horse serum, 1% antibioticantimycotic (AbAm), and 20 ng/mL M-CSF. After 7 d in culture, the medium was replaced with an activation medium whereby M-CSF was replaced with 25 ng/mL IFN-γ and 100 ng/mL LPS for M1 activation or with 25 ng/mL IL-4 for M2 activation. For M1 activation medium, AbAm was replaced with 1% penicillin-streptomycin (Pen-Strep). After 2 d of activation, the activated macrophages were scraped off the petri dishes for binding studies.
Biotinylated peptide stock solutions were prepared in H2O at 10 mg/mL concentration and quantified for the exact concentration using Quant*Tag Biotin quantification kit. The stock solutions were diluted in PBS with 1% BSA (PBSA) to different concentrations for binding studies. Activated macrophages were seeded on a black 96-well plate (50,000 cells/well) and incubated with the peptide solutions for 20 min on ice. The cells were washed twice with PBSA and subsequently incubated with streptavidin-FITC for 15 min on ice. After two additional washes, the cells were resuspended in PBS for analysis via MACSQuant Flow Cytometer (Miltenyi Biotec, San Diego, Calif.). Propidium iodide (PI) was added before running each sample to assess for cell viability. Data analysis was processed on FlowJo Analysis Software (Tree Star, Ashland, Oreg.). […]

Row | Molecule | binding activity to M2 macrophages (in words)
1 | CC(=O)N[C@@H](Cc1ccc(O)cc1)C(=O)N[C@@H](CCC(=O)O)C(=O)N[C@@H](CCC(N)=O)C(=O)N[C@@H](CC(=O)O)C(=O)N1CCC[C@H]1C(=O)N[C@@H](Cc1c[nH]c2ccccc12)C(=O)NCC(=O)N[C@H](C(=O)N[C@@H](CCCNC(=N)N)C(=O)N[C@@H](Cc1ccc(O)cc1)C(=O)N[C@@H](Cc1c[nH]c2ccccc12)C(=O)N[C@@H](Cc1ccc(O)cc1)C(=O)NCC(=O)NCC(=O)NCC(=O)N[C@@H](CO)C(=O)N[C@H](CCCCN)C(=O)N[C@H](CCCCN)C(=O)N[C@H](CCCCN)C(=O)N[C@@H](CCCCNC(=O)CCCC[C@@H]1SC[C@@H]2NC(=O)N[C@@H]21)C(N)=O)C(C)C [AcM2pep(RY)Biotin, Ac-YEQDPWGVRYWYGGGSkkk] (Ac-YEQDPWGVRYWYGGGS[dK][dK][dK]K(Biotin)-NH2) | did not improve the binding activity any further compared to the K9R analog; also recorded: highest affinity linear M2pep analog
2 | Fc1c(F)c(F)c(-c2c(F)c(F)c(F)c(F)c2F)c(F)c1F [DFBP, decafluorobiphenyl, reference compound] | negligible binding to M2 macrophages
3 | CC(=O)N[C@@H](Cc1ccc(O)cc1)C(=O)N[C@@H](CCC(=O)O)C(=O)N[C@@H](CCC(N)=O)C(=O)N[C@@H](CC(=O)O)C(=O)N1CCC[C@H]1C(=O)N[C@@H](Cc1c[nH]c2ccccc12)C(=O)NCC(=O)N[C@H](C(=O)N[C@@H](CCCCN)C(=O)N[C@H](Cc1c[nH]c2ccccc12)C(=O)N[C@H](Cc1c[nH]c2ccccc12)C(=O)N[C@@H](Cc1ccc(O)cc1)C(=O)NCC(=O)NCC(=O)NCC(=O)N[C@@H](CO)C(=O)N[C@@H](CCCCN)C(=O)N[C@@H](CCCCN)C(=O)N[C@@H](CCCCN)C(=O)N[C@@H](CCCCNC(=O)CCCC[C@@H]1SC[C@@H]2NC(=O)N[C@@H]21)C(N)=O)C(C)C [W(10,11)w, Ac-YEQDPWGVKwwYGGGSKKK] | did not restore the binding activity
4 | CC(=O)N[C@@H](Cc1ccc(O)cc1)C(=O)N[C@@H](CCC(=O)O)C(=O)N[C@@H](CCC(N)=O)C(=O)N[C@@H](CC(=O)O)C(=O)N1C[C@H](O)C[C@H]1C(=O)N[C@@H](Cc1c[nH]c2ccccc12)C(=O)NCC(=O)N[C@H](C(=O)N[C@@H](CCCNC(=N)N)C(=O)N[C@@H](Cc1ccc(O)cc1)C(=O)N[C@@H](Cc1c[nH]c2ccccc12)C(=O)N[C@H](Cc1ccc(O)cc1)C(=O)NCC(=O)NCC(=O)NCC(=O)N[C@@H](CO)C(=O)N[C@H](CCCCN)C(=O)N[C@H](CCCCN)C(=O)N[C@H](CCCCN)C(=O)N[C@@H](CCCCNC(=O)CCCC[C@@H]1SC[C@@H]2NC(=O)N[C@@H]21)C(N)=O)C(C)C [P5Hyp, Ac-YEQD(Hyp)WGVRYWyGGGSkkk] (Ac-YEQD[Hyp]WGVRYW[dY]GGGS[dK][dK][dK]K(Biotin)-NH2) | significantly ablated the binding activity
5 | Biotin-Ahx-GRGRGRG(C-DFBP)G [reference compound] | binds very weakly to macrophages even at 100 μM
6 | CC(=O)N[C@@H](CCCNC(=N)N)C(=O)N[C@@H](Cc1ccc(O)cc1)C(=O)N[C@@H](CCC(=O)O)C(=O)N[C@@H](CCC(N)=O)C(=O)N[C@@H](CC(=O)O)C(=O)N1CCC[C@H]1C(=O)N[C@@H](Cc1c[nH]c2ccccc12)C(=O)NCC(=O)N[C@H](C(=O)N[C@@H](CCCNC(=N)N)C(=O)N[C@@H](Cc1ccc(O)cc1)C(=O)N[C@@H](Cc1c[nH]c2ccccc12)C(=O)N[C@H](Cc1ccc(O)cc1)C(=O)NCC(=O)NCC(=O)NCC(=O)N[C@@H](CO)C(=O)N[C@H](CCCCN)C(=O)N[C@H](CCCCN)C(=O)N[C@H](CCCCN)C(=O)N[C@@H](CCCCNC(=O)CCCC[C@@H]1SC[C@@H]2NC(=O)N[C@@H]21)C(N)=O)C(C)C [R0, Ac-RYEQDPWGVRYWyGGGSkkk] (Ac-RYEQDPWGVRYW[dY]GGGS[dK][dK][dK]K(Biotin)-NH2) | did not improve binding activity any further
7 | CC(=O)N[C@@H](Cc1ccc(O)cc1)C(=O)N[C@@H](CCC(=O)O)C(=O)N[C@@H](CCC(N)=O)C(=O)N[C@@H](CC(=O)O)C(=O)N1CCC[C@H]1C(=O)N[C@@H](Cc1c[nH]c2ccccc12)C(=O)NCC(=O)N[C@H](C(=O)N[C@@H](CCCCN)C(=O)N[C@H](Cc1c[nH]c2ccccc12)C(=O)N[C@@H](Cc1c[nH]c2ccccc12)C(=O)N[C@@H](Cc1ccc(O)cc1)C(=O)NCC(=O)NCC(=O)NCC(=O)N[C@@H](CO)C(=O)N[C@@H](CCCCN)C(=O)N[C@@H](CCCCN)C(=O)N[C@@H](CCCCN)C(=O)N[C@@H](CCCCNC(=O)CCCC[C@@H]1SC[C@@H]2NC(=O)N[C@@H]21)C(N)=O)C(C)C [W10w, Ac-YEQDPWGVKwWYGGGSKKK] | abrogated binding activity
8 | CC(C)[C@@H]1NC(=O)CNC(=O)[C@H](Cc2c[nH]c3ccccc23)NC(=O)[C@@H]2CCCN2C(=O)[C@H](CC(=O)O)NC(=O)CNC(=O)[C@@H](N)CSSC[C@@H](C(=O)N[C@H](CCCCN)C(=O)N[C@H](CCCCN)C(=O)N[C@H](CCCCN)C(=O)N[C@@H](CCCCNC(=O)CCCC[C@@H]2SC[C@@H]3NC(=O)N[C@@H]32)C(N)=O)NC(=O)CNC(=O)[C@H](Cc2ccc(O)cc2)NC(=O)[C@H](Cc2c[nH]c3ccccc23)NC(=O)[C@H](Cc2ccc(O)cc2)NC(=O)[C@H](CCCNC(=N)N)NC1=O [cRYWY, CGDPWGVRYWYGCkkk] (H-CGDPWGVRYWYGC[dK][dK][dK]K(Biotin)-NH2; disulfide 1-13) | significantly lower binding activity compared to cyclic M2pep(RY)Biotin
9 | CC(C)[C@@H]1NC(=O)CNC(=O)[C@H](Cc2c[nH]c3ccccc23)NC(=O)[C@@H]2CCCN2C(=O)[C@H](CC(=O)O)NC(=O)CNC(=O)[C@@H](N)CSSC[C@@H](C(=O)N[C@H](CCCCN)C(=O)N[C@H](CCCCN)C(=O)N[C@H](CCCCN)C(=O)N[C@@H](CCCCNC(=O)CCCC[C@@H]2SC[C@@H]3NC(=O)N[C@@H]32)C(N)=O)NC(=O)CNC(=O)[C@H](Cc2c[nH]c3ccccc23)NC(=O)[C@H](Cc2ccc(O)cc2)NC(=O)[C@H](CCCNC(=N)N)NC1=O [cRYW, CGDPWGVRYWGCkkk] (H-CGDPWGVRYWGC[dK][dK][dK]K(Biotin)-NH2; disulfide 1-12) | significantly lower binding activity compared to cyclic M2pep(RY)Biotin
10 | Cc1cn(C)nn1 [Triazole-cyclized M2pep(RY)Biotin] | bind less strongly

Test system: not listed separately
Test: Serum stability study in normal mouse serum, analysis by MALDI-TOF MS
Settings: mouse serum
Experimental: The peptide of interest (30 μL of 10 mg/mL stock solution in dH2O) was added to normal mouse serum (300 μL) and incubated at 37° C. in an incubator. At each time point, an aliquot of 40 μL was drawn and an equal volume of ACN was added to the aliquot to precipitate serum proteins. The cloudy mixture was centrifuged at 10,000 rpm for 5 min and then supernatant removed. A solution of 1:1 H2O/ACN (80 μL) was added to the pellet and sonicated for 10 min to further extract the remaining peptides. This resuspended mixture was then centrifuged, and the supernatant was pooled with the former and vacuum-dried on a Speedvac machine. The dried pellet was solubilized in H2O (50 μL) by sonication for 10 min. The mixture was then centrifuged, and the supernatant was drawn and analyzed by MALDI-TOF MS.
To evaluate serum stability of M2pep, the peptide was incubated in mouse serum, and aliquots of the serum at various time points were withdrawn for analysis of degradation patterns by MALDI-TOF MS.
Different M2pep analogs (30 μL from 10 mg/mL stock solution in H2O) were incubated in normal mouse serum (300 μL) at 37° C. in an incubator. An aliquot of the serum (40 μL) was drawn at different time intervals and precipitated with an equal volume of cold ACN. The mixture was centrifuged at 15,000 rpm for 5 min, and the supernatant was collected. A solution of H2O/ACN (1:1 v/v, 80 μL) was added to the pellet with a 10-min sonication to further extract residual peptides. The mixture was then centrifuged. The supernatant was pooled with the former and dried under vacuum on a Speedvac machine. The peptide pellet was resuspended in H2O (50 μL) with a 10-min sonication before analysis by MALDI-ToF MS.

Row | Molecule | serum stability at the W10/W11 endolytic cleavage site
11 | CC(=O)N[C@@H](Cc1ccc(O)cc1)C(=O)N[C@@H](CCC(=O)O)C(=O)N[C@@H](CCC(N)=O)C(=O)N[C@@H](CC(=O)O)C(=O)N1CCC[C@H]1C(=O)N[C@@H](Cc1c[nH]c2ccccc12)C(=O)NCC(=O)N[C@H](C(=O)N[C@@H](CCCNC(=N)N)C(=O)N[C@@H](Cc1ccc(O)cc1)C(=O)N[C@@H](Cc1c[nH]c2ccccc12)C(=O)N[C@@H](Cc1ccc(O)cc1)C(=O)NCC(=O)NCC(=O)NCC(=O)N[C@@H](CO)C(=O)N[C@H](CCCCN)C(=O)N[C@H](CCCCN)C(=O)N[C@H](CCCCN)C(=O)N[C@@H](CCCCNC(=O)CCCC[C@@H]1SC[C@@H]2NC(=O)N[C@@H]21)C(N)=O)C(C)C [AcM2pep(RY)Biotin, Ac-YEQDPWGVRYWYGGGSkkk] (Ac-YEQDPWGVRYWYGGGS[dK][dK][dK]K(Biotin)-NH2) | did not improve serum stability at the W10/W11 site
12 | CC(=O)N[C@@H](Cc1ccc(O)cc1)C(=O)N[C@@H](CCC(=O)O)C(=O)N[C@@H](CCC(N)=O)C(=O)N[C@@H](CC(=O)O)C(=O)N1CCC[C@H]1C(=O)N[C@@H](Cc1c[nH]c2ccccc12)C(=O)NCC(=O)N[C@H](C(=O)N[C@@H](CCCCN)C(=O)N[C@H](Cc1c[nH]c2ccccc12)C(=O)N[C@@H](Cc1c[nH]c2ccccc12)C(=O)N[C@@H](Cc1ccc(O)cc1)C(=O)NCC(=O)NCC(=O)NCC(=O)N[C@@H](CO)C(=O)N[C@@H](CCCCN)C(=O)N[C@@H](CCCCN)C(=O)N[C@@H](CCCCN)C(=O)N[C@@H](CCCCNC(=O)CCCC[C@@H]1SC[C@@H]2NC(=O)N[C@@H]21)C(N)=O)C(C)C [W10w, Ac-YEQDPWGVKwWYGGGSKKK] | effective protection against endolytic cleavage at the W10/W11 site
